According to ChEMBL document CHEMBL1201862, “PubChem BioAssay data set” (2004):
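Cells were grown in 96-well plates and exposed to each compound for 48 hours at five concentrations; endpoints were interpolated linearly between bracketing concentrations, or set to the highest concentration if not reached. Here, GI50 denotes the concentration required for 50% inhibition of growth.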 The source made the active and inactive calls. Rule as the data show it: active = GI50 up to about 1.1 µM and inactive = higher.

Assays:
Experiment in all cases: NCI tumour cell line growth inhibition, 48 h
KM12 = tested on: KM12
HOP-92 = tested on: HOP-92
HCT-15 = tested on: HCT-15
U-251 = tested on: U-251
ACHN = tested on: ACHN
SF-295 = tested on: SF-295
786-0 = tested on: 786-0
RPMI-8226 = tested on: RPMI-8226
SNB-75 = tested on: SNB-75
MOLT-4 = tested on: MOLT-4
MDA-MB-435 = tested on: MDA-MB-435
SNB-19 = tested on: SNB-19
SK-MEL-2 = tested on: SK-MEL-2
LOX IMVI = tested on: LOX IMVI
OVCAR-3 = tested on: OVCAR-3
HL-60 = tested on: HL-60
SR = tested on: SR
SF-268 = tested on: SF-268
HCC 2998 = tested on: HCC 2998
NCI-H522 = tested on: NCI-H522

SMILES | GI50 (KM12) | GI50 (HOP-92) | GI50 (HCT-15) | GI50 (U-251) | GI50 (ACHN) | GI50 (SF-295) | GI50 (786-0) | GI50 (RPMI-8226) | GI50 (SNB-75) | GI50 (MOLT-4) | GI50 (MDA-MB-435) | GI50 (SNB-19) | GI50 (SK-MEL-2) | GI50 (LOX IMVI) | GI50 (OVCAR-3) | GI50 (HL-60) | GI50 (SR) | GI50 (SF-268) | GI50 (HCC 2998) | GI50 (NCI-H522)
COc1cc(Br)cc2cc(C3=CSC4=NCCN34)c(=O)oc12 | 20 µM (inactive) | 17.1 µM (inactive) | 17.2 µM | 18.1 µM (inactive) | 28.3 µM (inactive) | 19.4 µM (inactive) | 18.4 µM (inactive) | 22.7 µM (inactive) | 21 µM (inactive) | 20 µM (inactive) | 17.8 µM (inactive) | 18.1 µM (inactive) | 20.3 µM (inactive) | 18.2 µM (inactive) | 16.8 µM (inactive) | 29.4 µM (inactive) | 21.9 µM (inactive) | – | – | –
CCN(CC)C(=S)N/N=C/c1ccccn1 | – | 0.113 µM (active) | < 0.01 µM | < 0.01 µM (active) | < 0.0172 µM (active) | < 0.0483 µM (active) | < 0.01 µM (active) | < 0.01 µM (active) | 0.624 µM (active) | < 0.01 µM (active) | 0.12 µM (active) | < 0.0118 µM (active) | 0.625 µM (active) | < 0.01 µM (active) | < 0.01 µM (active) | < 0.0149 µM (active) | – | < 0.0177 µM (active) | 0.149 µM (active) | < 0.01 µM (active)
COCN1C(=O)[C@@H]2CCCN2C(=O)c2cc([N+](=O)[O-])ccc21 | > 100 µM (inactive) | – | > 100 µM | 42 µM (inactive) | 53.1 µM (inactive) | 35.5 µM (inactive) | > 100 µM (inactive) | – | 67.9 µM (inactive) | – | 66.2 µM (inactive) | 96.6 µM (inactive) | 64.1 µM (inactive) | 26.3 µM (inactive) | – | – | – | 35.9 µM (inactive) | – | 16 µM (inactive)
COc1cccc(/C=N/[N+](C)(C)C)c1O | > 10 µM (inactive) | – | > 10 µM | > 10 µM (inactive) | > 10 µM (inactive) | > 10 µM (inactive) | > 10 µM (inactive) | > 10 µM (inactive) | > 10 µM (inactive) | > 10 µM (inactive) | > 10 µM (inactive) | > 10 µM (inactive) | > 10 µM (inactive) | > 10 µM (inactive) | > 10 µM (inactive) | > 10 µM (inactive) | – | > 10 µM (inactive) | > 10 µM (inactive) | > 10 µM (inactive)
Nc1ccc2nc(-c3cccc(Cl)c3)cc(O)c2c1 | 4.23 µM (inactive) | 2.84 µM (inactive) | 3.19 µM | 3.2 µM (inactive) | 5.93 µM (inactive) | – | 4.24 µM (inactive) | – | 2.15 µM (inactive) | 3.55 µM (inactive) | 0.738 µM (active) | 5.83 µM (inactive) | – | – | – | – | – | – | 6.73 µM (inactive) | 2.34 µM (inactive)
CCCC(=O)n1[nH]c(=O)n(C(C)(C)C)c1=O | > 100 µM (inactive) | – | > 100 µM | > 100 µM (inactive) | > 100 µM (inactive) | > 100 µM (inactive) | > 100 µM (inactive) | > 100 µM (inactive) | 39.5 µM (inactive) | > 100 µM (inactive) | > 100 µM (inactive) | > 100 µM (inactive) | > 100 µM (inactive) | > 100 µM (inactive) | > 100 µM (inactive) | > 100 µM (inactive) | > 100 µM (inactive) | > 100 µM (inactive) | > 100 µM (inactive) | –
CC#CC(O)(C(=O)OC1CC(C)N(C)C(C)(C)C1)C1CCCC1 (configuration not stated) | > 100 µM (inactive) | – | > 100 µM | > 100 µM (inactive) | > 100 µM (inactive) | > 100 µM (inactive) | > 100 µM (inactive) | > 100 µM (inactive) | > 100 µM (inactive) | > 100 µM (inactive) | > 100 µM (inactive) | > 100 µM (inactive) | – | > 100 µM (inactive) | > 100 µM (inactive) | > 100 µM (inactive) | > 100 µM (inactive) | > 100 µM (inactive) | > 100 µM (inactive) | > 100 µM (inactive)
CSC1=NC(C(N)=O)C(N)N1C (configuration not stated) | > 100 µM (inactive) | > 100 µM (inactive) | > 100 µM | > 100 µM (inactive) | > 100 µM (inactive) | > 100 µM (inactive) | > 100 µM (inactive) | > 100 µM (inactive) | – | > 100 µM (inactive) | > 100 µM (inactive) | > 100 µM (inactive) | > 100 µM (inactive) | > 100 µM (inactive) | > 100 µM (inactive) | > 100 µM (inactive) | > 100 µM (inactive) | > 100 µM (inactive) | – | > 100 µM (inactive)
O=C(COc1ccc(Cl)c(Cl)c1)Nc1ccc[n+](Cc2ccc(S(=O)(=O)F)c(Cl)c2)c1 | > 100 µM (inactive) | > 100 µM (inactive) | > 100 µM | > 100 µM (inactive) | > 100 µM (inactive) | > 100 µM (inactive) | > 100 µM (inactive) | 1.02 µM (active) | > 100 µM (inactive) | 25.4 µM (inactive) | > 100 µM (inactive) | > 100 µM (inactive) | > 100 µM (inactive) | – | > 100 µM (inactive) | > 100 µM (inactive) | 40.6 µM (inactive) | > 100 µM (inactive) | – | > 100 µM (inactive)
Cc1cc2[nH]c3c(C#N)c(-c4ccccc4)c(/C=N/c4cccc(C(F)(F)F)c4)c(=O)n3c2cc1C | 38.4 µM (inactive) | – | 74.1 µM | > 100 µM (inactive) | 83.9 µM (inactive) | 64.3 µM (inactive) | 94 µM (inactive) | 70 µM (inactive) | > 100 µM (inactive) | – | > 100 µM (inactive) | > 100 µM (inactive) | > 100 µM (inactive) | 97.9 µM (inactive) | 16.3 µM (inactive) | – | – | 64.7 µM (inactive) | > 100 µM (inactive) | 39.4 µM (inactive)
CCOC(=O)c1cc(-c2ccn(C(C)=O)c2)c(-c2cc(C)co2)[nH]1 | > 100 µM (inactive) | – | > 100 µM | > 100 µM (inactive) | > 100 µM (inactive) | > 100 µM (inactive) | > 100 µM (inactive) | > 100 µM (inactive) | > 100 µM (inactive) | > 100 µM (inactive) | > 100 µM (inactive) | > 100 µM (inactive) | > 100 µM (inactive) | > 100 µM (inactive) | > 100 µM (inactive) | > 100 µM (inactive) | > 100 µM (inactive) | > 100 µM (inactive) | > 100 µM (inactive) | > 100 µM (inactive)
CCOC(=O)CNc1c(OCc2ccccc2)c(=O)c1=O | > 100 µM (inactive) | – | > 100 µM | > 100 µM (inactive) | > 100 µM (inactive) | > 100 µM (inactive) | > 100 µM (inactive) | > 100 µM (inactive) | > 100 µM (inactive) | > 100 µM (inactive) | > 100 µM (inactive) | > 100 µM (inactive) | > 100 µM (inactive) | – | > 100 µM (inactive) | – | > 100 µM (inactive) | > 100 µM (inactive) | > 100 µM (inactive) | > 100 µM (inactive)
